Results on 22 molecules are retold here after ChEMBL document CHEMBL3045644, “Synthesis anti-inflammatory and anticancer activity evaluation of some pyrazole and oxadiazole derivatives” (2012).

The structures appear in SMILES notation.

Holding throughout (assay type): functional
In one assay the test system is HepG2. Kind of assay: Growth inhibition of Homo sapiens (human) HepG2 cells at 10 uM after 48 hr by SRB assay. The settings on record: HepG2, 48 h, read-out: GI. For orientation: Sulforhodamine B stains cellular protein and so reports cell mass.
Another assay relates to HCT-15. The experiment in a line: Growth inhibition of Homo sapiens (human) HCT15 cells at 10 uM after 48 hr by SRB assay. The settings on record: HCT-15, 48 h, read-out: GI.
In the next assay the test system is T47D. The experiment in a line: Growth inhibition of Homo sapiens (human) T47D cells at 10 uM after 48 hr by SRB assay. The settings on record: read-out: GI.
A further assay relates to PA-1. Kind of assay: Growth inhibition of Homo sapiens (human) PA1 cells at 10 uM after 48 hr by SRB assay. The settings on record: PA-1, 48 h, read-out: GI.
The next assay has as its system NCI-H522. The experiment in a line: Growth inhibition of Homo sapiens (human) NCI-H522 cells at 10 uM after 48 hr by SRB assay. The note with it: NCI-H522, 48 h, read-out: GI.
A further assay has as its system Rattus norvegicus. The experiment in a line: Anti-inflammatory activity in Charles Foster albino Rattus norvegicus (rat) assessed as inhibition of carrageenan-induced paw edema at 50 mg/kg, po […] measured up to 3 hr relative to control. Background: The carrageenan paw model is a standard test of acute inflammation.

With `COc1ccc(OC)c(C2CC(c3ccccn3)=NN2)c1` (centres undefined), the inhibition of growth at 10 µM is 23% with HepG2; 10% in the assay on HCT-15; 26% in the assay with T47D; 25% in the assay with PA-1; 28% in the assay on NCI-H522. For the same molecule, the inhibition in vivo at 50 mg/kg with Rattus norvegicus amounted to 15%.
For `CN(C)c1ccc(C2CC(c3ccncc3)=NN2c2ccccc2)cc1` (centres undefined), the inhibition of growth at 10 µM in the assay with HepG2 came to 35%; with HCT-15, 6%; in the assay on T47D, 7%; in the assay with PA-1, 24%; in the assay with NCI-H522 it was 32%. Also, in the assay on Rattus norvegicus, the inhibition in vivo at 50 mg/kg was determined as 32%.
With `COc1ccc(OC)c(-c2nc(-c3ccccn3)no2)c1`, the inhibition of growth at 10 µM in the assay on HepG2 worked out at 33%; in the assay on HCT-15 it was 5%; in the assay on T47D, 37%; with PA-1, 25%; in the assay on NCI-H522 it was 23%. Moreover, the inhibition in vivo at 50 mg/kg with Rattus norvegicus is 28%.
Regarding `COc1ccc(OC)c(-c2nc(-c3ccncc3)no2)c1`, the inhibition of growth at 10 µM was found to be 27% with HepG2; 2% with HCT-15; 25% in the assay with T47D; 19% with PA-1; 10% in the assay with NCI-H522. The inhibition in vivo at 50 mg/kg in the assay on Rattus norvegicus was 35%.
As to `COc1ccc(OC)c(-c2nc(-c3cnccn3)no2)c1`, the inhibition of growth at 10 µM was determined as 17% in the assay on HepG2; 7% in the assay with HCT-15; 41% in the assay on T47D; 26% with PA-1; 23% in the assay on NCI-H522. Further, in the assay with Rattus norvegicus, the inhibition in vivo at 50 mg/kg turned out to be 11%.
As to `COc1cc(-c2nc(-c3ccccn3)no2)ccc1O`, the inhibition of growth at 10 µM is 39% in the assay on HepG2; 3% with HCT-15; 33% with T47D; 30% with PA-1; 48% in the assay with NCI-H522. Besides, in the assay with Rattus norvegicus, the inhibition in vivo at 50 mg/kg was found to be 24%.
`COc1cc(-c2nc(-c3ccncc3)no2)ccc1O`: the inhibition of growth at 10 µM is 13% in the assay with HepG2; 5% in the assay on HCT-15; 34% in the assay on T47D; 32% in the assay with PA-1; 25% in the assay with NCI-H522. Also, the inhibition in vivo at 50 mg/kg with Rattus norvegicus worked out at 14%.
Consider `COc1cc(-c2nc(-c3cnccn3)no2)ccc1O`, for which the inhibition of growth at 10 µM was found to be 20% in the assay with HepG2; 1% in the assay on HCT-15; 35% in the assay with T47D; 20% in the assay on PA-1; 20% with NCI-H522. Also, in the assay on Rattus norvegicus, the inhibition in vivo at 50 mg/kg was 26%.
As for `COc1ccc(OC)c(C2CC(c3cccnc3)=NN2)c1` (centres undefined), the inhibition of growth at 10 µM came out at 34% in the assay with HepG2; 4% with HCT-15; 13% in the assay with T47D; 31% in the assay on PA-1; 40% with NCI-H522. Moreover, the inhibition in vivo at 50 mg/kg with Rattus norvegicus is 15%.
Regarding `COc1ccc(OC)c(C2CC(c3ccncc3)=NN2)c1` (centres undefined), the inhibition of growth at 10 µM with HepG2 turned out to be 34%; in the assay on HCT-15, 28%; in the assay on T47D, 19%; in the assay on PA-1 it was 24%; with NCI-H522, 24%. For the same molecule, in the assay with Rattus norvegicus, the inhibition in vivo at 50 mg/kg came to 13%.
For the molecule `CN(C)c1ccc(C2CC(c3ccccn3)=NN2)cc1` (centres undefined), the inhibition of growth at 10 µM in the assay on HepG2 is 29%; in the assay with HCT-15, 5%; with T47D, 3%; in the assay on PA-1, 21%; in the assay with NCI-H522 it was 34%. Moreover, the inhibition in vivo at 50 mg/kg in the assay on Rattus norvegicus is 18%.
Take `CN(C)c1ccc(C2CC(c3cccnc3)=NN2)cc1` (centres undefined): the inhibition of growth at 10 µM with HepG2 amounted to 35%; in the assay with HCT-15 it was 6%; in the assay on T47D, 15%; in the assay with PA-1, 36%; in the assay with NCI-H522, 25%. Also, the inhibition in vivo at 50 mg/kg in the assay on Rattus norvegicus was found to be 22%.
On to `CN(C)c1ccc(C2CC(c3ccncc3)=NN2)cc1` (centres undefined), for which the inhibition of growth at 10 µM came to 29% in the assay with HepG2; 3% in the assay with HCT-15; 21% in the assay with T47D; 26% with PA-1; 28% in the assay with NCI-H522. The inhibition in vivo at 50 mg/kg in the assay on Rattus norvegicus stood at 0%.
Consider `COc1ccc(OC)c(C2CC(c3ccccn3)=NN2c2ccccc2)c1` (centres undefined), for which the inhibition of growth at 10 µM turned out to be 20% in the assay on HepG2; 9% in the assay on HCT-15; 12% in the assay with T47D; 18% in the assay on PA-1; 16% in the assay on NCI-H522. In the assay with Rattus norvegicus, the inhibition in vivo at 50 mg/kg is 27%.
Turning to `COc1ccc(OC)c(C2CC(c3cccnc3)=NN2c2ccccc2)c1` (centres undefined), the inhibition of growth at 10 µM in the assay on HepG2 came out at 26%; with HCT-15, 7%; with T47D, 22%; with PA-1, 32%; with NCI-H522 it was 32%. Also, the inhibition in vivo at 50 mg/kg in the assay with Rattus norvegicus amounted to 24%.
For the molecule `COc1ccc(OC)c(C2CC(c3ccncc3)=NN2c2ccccc2)c1` (centres undefined), the inhibition of growth at 10 µM in the assay with HepG2 was found to be 32%; in the assay with HCT-15, 5%; in the assay with T47D, 37%; in the assay with PA-1, 31%; with NCI-H522, 29%. Moreover, in the assay with Rattus norvegicus, the inhibition in vivo at 50 mg/kg came to 18%.
With `CN(C)c1ccc(C2CC(c3ccccn3)=NN2c2ccccc2)cc1` (centres undefined), the inhibition of growth at 10 µM was found to be 24% in the assay on HepG2; 12% in the assay with HCT-15; 41% with T47D; 16% in the assay with PA-1; 26% in the assay on NCI-H522. Also, the inhibition in vivo at 50 mg/kg in the assay with Rattus norvegicus came to 35%.
As for `CN(C)c1ccc(C2CC(c3cccnc3)=NN2c2ccccc2)cc1` (centres undefined), the inhibition of growth at 10 µM in the assay on HepG2 worked out at 32%; in the assay on HCT-15, 1%; in the assay on T47D, 33%; in the assay with PA-1, 20%; in the assay with NCI-H522 it was 20%. For the same molecule, the inhibition in vivo at 50 mg/kg in the assay on Rattus norvegicus was 34%.
`C[C@@H]1C[C@@H]([C@H](O)CC2CC(=O)NC(=O)C2)C(=O)[C@@H](C)C1` [CYCLOHEXIMIDE]: the inhibition of growth at 10 µM is 5% in the assay on HepG2; 3% in the assay on HCT-15; 9% with T47D; 51% in the assay with PA-1; 13% with NCI-H522.
For `O=P1(N(CCCl)CCCl)NCCCO1` (centres undefined) [CYCLOPHOSPHAMIDE ANHYDROUS] the same measures were 14%, 5%, 18%, 4% and 4%.
On the same counts, the results for `O=c1[nH]cc(F)c(=O)[nH]1` [FLUOROURACIL] are 18%, 8%, 5%, 10% and 24%.
On to `CC(C)Cc1ccc(C(C)C(=O)O)cc1` (centres undefined) [IBUPROFEN], for which the inhibition in vivo at 50 mg/kg in the assay on Rattus norvegicus stood at 39%.

A word on the inhibition in vivo: it is the drop in the measured response relative to a control, in per cent.
